Reference: ChEMBL document CHEMBL3875196, “Novel pyrazolo[1,5-a]pyridines with improved aqueous solubility as p110α-selective PI3 kinase inhibitors” (Bioorg Med Chem Lett, 2017)

How the values were obtained:
[1] = biological target: T1, Phosphatidylinositol 4,5-bisphosphate 3-kinase catalytic subunit delta isoform (Homo sapiens, UniProt O00329); assay: Inhibition of p110delta (unknown origin) using L-alpha phosphatidylinositol as substrate after 1 hr in presence of [gamma33]-ATP by thin layer chromatographic analysis
T1 sequence (O00329 whole entry): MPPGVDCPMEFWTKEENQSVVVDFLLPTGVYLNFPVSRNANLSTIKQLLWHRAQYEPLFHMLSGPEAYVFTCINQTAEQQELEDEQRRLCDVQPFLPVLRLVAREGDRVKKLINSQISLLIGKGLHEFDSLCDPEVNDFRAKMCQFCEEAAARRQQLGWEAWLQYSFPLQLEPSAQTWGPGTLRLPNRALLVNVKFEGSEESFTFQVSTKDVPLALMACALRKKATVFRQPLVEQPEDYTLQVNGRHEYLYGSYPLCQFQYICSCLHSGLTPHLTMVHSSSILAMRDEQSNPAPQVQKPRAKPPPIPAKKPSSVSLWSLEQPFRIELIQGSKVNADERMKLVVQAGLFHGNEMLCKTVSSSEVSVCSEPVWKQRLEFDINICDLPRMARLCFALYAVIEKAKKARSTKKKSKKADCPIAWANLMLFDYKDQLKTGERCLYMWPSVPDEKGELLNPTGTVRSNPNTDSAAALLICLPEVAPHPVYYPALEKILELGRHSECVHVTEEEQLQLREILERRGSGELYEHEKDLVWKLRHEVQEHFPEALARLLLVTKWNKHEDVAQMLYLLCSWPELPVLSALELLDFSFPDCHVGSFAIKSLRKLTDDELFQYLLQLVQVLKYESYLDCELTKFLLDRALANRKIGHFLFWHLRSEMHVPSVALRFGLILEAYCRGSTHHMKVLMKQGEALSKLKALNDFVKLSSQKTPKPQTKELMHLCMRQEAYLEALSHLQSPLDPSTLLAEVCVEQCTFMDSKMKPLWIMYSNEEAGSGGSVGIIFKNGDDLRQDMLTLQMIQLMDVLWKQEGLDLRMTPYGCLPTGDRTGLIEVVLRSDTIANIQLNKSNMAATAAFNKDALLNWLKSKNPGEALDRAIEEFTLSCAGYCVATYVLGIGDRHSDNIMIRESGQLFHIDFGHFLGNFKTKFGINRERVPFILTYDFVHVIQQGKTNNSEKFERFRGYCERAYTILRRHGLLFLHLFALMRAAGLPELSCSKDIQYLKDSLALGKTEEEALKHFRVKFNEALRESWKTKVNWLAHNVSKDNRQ

PI3K p110 beta/p85 alpha = PI3K p110 beta/p85 alpha (Homo sapiens, UniProt P42338); assay: Inhibition of recombinant human p110beta/N-terminal His-tagged human p85alpha expressed in baculovirus infected sf cells using L-alpha-phosphatidylinositol as substrate after 1 hr in presence of [gamma33]-ATP by thin layer chromatographic analysis
Chain of PI3K p110 beta/p85 alpha (P27986 whole entry, canonical isoform): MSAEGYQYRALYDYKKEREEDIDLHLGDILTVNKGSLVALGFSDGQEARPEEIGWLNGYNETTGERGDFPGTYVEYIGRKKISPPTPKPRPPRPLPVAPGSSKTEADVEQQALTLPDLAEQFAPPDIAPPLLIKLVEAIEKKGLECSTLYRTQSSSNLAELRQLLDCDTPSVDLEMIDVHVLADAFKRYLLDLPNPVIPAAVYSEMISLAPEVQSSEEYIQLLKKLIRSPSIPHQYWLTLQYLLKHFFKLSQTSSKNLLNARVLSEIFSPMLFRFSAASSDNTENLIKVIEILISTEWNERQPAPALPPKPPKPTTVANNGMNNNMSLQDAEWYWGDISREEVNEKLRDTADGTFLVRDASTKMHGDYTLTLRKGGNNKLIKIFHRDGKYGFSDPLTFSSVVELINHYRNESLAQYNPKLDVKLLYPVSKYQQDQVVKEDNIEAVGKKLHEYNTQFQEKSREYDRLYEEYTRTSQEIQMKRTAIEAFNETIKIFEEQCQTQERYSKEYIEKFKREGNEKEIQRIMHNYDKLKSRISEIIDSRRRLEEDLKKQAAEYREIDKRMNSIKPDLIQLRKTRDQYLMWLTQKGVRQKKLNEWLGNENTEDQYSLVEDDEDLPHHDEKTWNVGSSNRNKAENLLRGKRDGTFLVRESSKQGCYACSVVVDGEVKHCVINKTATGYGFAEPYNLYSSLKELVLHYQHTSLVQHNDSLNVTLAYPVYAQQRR
Chain of PI3K p110 beta/p85 alpha (P42338 whole entry, canonical isoform): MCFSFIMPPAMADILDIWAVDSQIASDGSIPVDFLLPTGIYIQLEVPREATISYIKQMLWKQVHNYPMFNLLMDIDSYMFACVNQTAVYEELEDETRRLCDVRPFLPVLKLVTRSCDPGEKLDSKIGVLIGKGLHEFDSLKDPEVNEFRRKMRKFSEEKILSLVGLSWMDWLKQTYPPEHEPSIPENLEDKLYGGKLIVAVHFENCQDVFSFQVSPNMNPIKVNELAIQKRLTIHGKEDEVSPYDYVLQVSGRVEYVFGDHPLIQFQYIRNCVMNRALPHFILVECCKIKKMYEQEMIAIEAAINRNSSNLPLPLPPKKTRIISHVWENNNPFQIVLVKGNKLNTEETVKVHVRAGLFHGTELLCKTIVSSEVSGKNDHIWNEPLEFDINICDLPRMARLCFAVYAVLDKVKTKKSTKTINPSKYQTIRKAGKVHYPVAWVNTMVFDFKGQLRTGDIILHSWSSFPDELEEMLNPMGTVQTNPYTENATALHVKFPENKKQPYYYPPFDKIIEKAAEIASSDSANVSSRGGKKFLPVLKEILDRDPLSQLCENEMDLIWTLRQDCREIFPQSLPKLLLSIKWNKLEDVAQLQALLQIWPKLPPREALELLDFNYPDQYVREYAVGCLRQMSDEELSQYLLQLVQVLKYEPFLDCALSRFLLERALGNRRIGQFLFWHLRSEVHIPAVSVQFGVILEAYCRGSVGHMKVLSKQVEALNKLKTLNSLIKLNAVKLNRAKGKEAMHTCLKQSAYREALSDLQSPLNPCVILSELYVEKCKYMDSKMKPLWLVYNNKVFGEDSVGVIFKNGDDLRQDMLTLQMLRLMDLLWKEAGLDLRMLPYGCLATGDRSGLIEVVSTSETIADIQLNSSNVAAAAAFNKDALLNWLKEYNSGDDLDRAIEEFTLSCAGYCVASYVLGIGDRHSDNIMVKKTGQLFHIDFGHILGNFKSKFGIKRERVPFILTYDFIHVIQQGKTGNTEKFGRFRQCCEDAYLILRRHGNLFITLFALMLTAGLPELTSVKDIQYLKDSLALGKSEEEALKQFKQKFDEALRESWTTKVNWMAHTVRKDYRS

[2] = biological target: Phosphatidylinositol 4,5-bisphosphate 3-kinase catalytic subunit alpha isoform (Homo sapiens, UniProt P42336, H1047R); assay: Inhibition of p110alpha H1047R mutant in human HCT116 cells assessed as suppression of PKB phosphorylation at Ser473 preincubated for 15 mins followed by insulin stimulation for 5 mins by immunoblot analysis; type: cell-based, HCT-116
Chain of Phosphatidylinositol 4,5-bisphosphate 3-kinase catalytic subunit alpha isoform (P42336 whole entry H1047R, canonical isoform): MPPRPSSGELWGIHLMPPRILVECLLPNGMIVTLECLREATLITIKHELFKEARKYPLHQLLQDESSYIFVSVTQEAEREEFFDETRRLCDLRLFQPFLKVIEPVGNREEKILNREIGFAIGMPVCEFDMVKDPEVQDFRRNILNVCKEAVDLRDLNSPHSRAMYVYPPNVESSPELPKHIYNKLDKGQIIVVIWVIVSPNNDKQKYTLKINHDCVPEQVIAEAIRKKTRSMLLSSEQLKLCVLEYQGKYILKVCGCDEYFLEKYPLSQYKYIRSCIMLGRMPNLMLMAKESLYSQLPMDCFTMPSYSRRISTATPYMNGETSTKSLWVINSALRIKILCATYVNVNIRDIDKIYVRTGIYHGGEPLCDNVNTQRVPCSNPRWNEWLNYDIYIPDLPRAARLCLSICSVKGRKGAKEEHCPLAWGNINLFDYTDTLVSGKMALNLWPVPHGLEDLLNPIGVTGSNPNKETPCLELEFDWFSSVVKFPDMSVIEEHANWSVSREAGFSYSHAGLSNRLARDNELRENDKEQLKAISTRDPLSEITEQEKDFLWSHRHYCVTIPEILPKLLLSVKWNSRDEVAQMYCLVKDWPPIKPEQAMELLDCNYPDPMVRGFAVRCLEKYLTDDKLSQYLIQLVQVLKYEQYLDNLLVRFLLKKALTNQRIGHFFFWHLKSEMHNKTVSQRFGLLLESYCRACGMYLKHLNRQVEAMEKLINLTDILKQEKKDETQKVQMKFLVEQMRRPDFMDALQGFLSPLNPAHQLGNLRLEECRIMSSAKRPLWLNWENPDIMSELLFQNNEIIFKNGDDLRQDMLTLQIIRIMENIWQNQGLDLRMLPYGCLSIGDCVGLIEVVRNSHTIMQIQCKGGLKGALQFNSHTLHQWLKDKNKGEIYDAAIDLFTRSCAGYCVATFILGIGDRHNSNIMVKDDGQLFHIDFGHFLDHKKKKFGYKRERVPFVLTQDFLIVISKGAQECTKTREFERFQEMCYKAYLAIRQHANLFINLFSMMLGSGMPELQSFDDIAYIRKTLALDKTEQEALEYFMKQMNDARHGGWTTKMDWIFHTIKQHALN

Mus musculus = assay: Toxicity in NIH3 mouse assessed as change in body weight at 20 to 40 mg/kg, ip; type: organism-based; details: in vivo
[3] = Antiproliferative activity against wild type p110alpha expressing human NZB5 cells after 5 days by [3H]-thymidine incorporation assay; type: functional, cell-based
[4] = Antiproliferative activity against wild type p110alpha expressing human NZOV9 cells after 5 days by [3H]-thymidine incorporation assay; type: functional, cell-based
[5] = Inhibition of recombinant mouse p110alpha/N-terminal His-tagged human p85alpha expressed in baculovirus infected Sf21 cells using L-alpha-phosphatidylinositol as substrate after 1 hr in presence of [gamma33]-ATP by thin layer chromatographic analysis
[6] = Solubility of the compound in water by HPLC analysis; type: physicochemical
[7] = Selectivity ratio of IC50 for p110delta (unknown origin) to IC50 for recombinant mouse p110alpha/N-terminal His-tagged human p85alpha
[8] = Selectivity ratio of IC50 for human p110beta to IC50 for recombinant mouse p110alpha/N-terminal His-tagged human p85alpha

IC50 [1] | IC50 (PI3K p110 beta/p85 alpha) | IC50 [2] | IC50 [5] | solubility [6] | Ratio IC50 [7] | Ratio IC50 [8] | SMILES | Activity (Mus musculus) | IC50 [3] | IC50 [4]
88 nM | 740 nM | 67 nM | 18 nM | – | – | – | CN(CCc1c[nH]cn1)c1ccc([N+](=O)[O-])cc1S(=O)(=O)N(C)/N=C/c1cnn2ccc(C#N)cc12 | Toxic | 3 nM | 57 nM
100 nM | 150 nM | 111 nM | 31 nM | – | – | – | CN(CCn1ccnc1)c1ccc([N+](=O)[O-])cc1S(=O)(=O)N(C)/N=C/c1cnn2ccc(C#N)cc12 | – | 5 nM | 45 nM
– | – | – | – | 1000 µg/mL | – | – | CN(CCn1ccnc1)c1ccc([N+](=O)[O-])cc1S(=O)(=O)N(C)/N=C/c1cnn2ccc(C#N)cc12.Cl | – | – | –
292 nM | 5600 nM | – | 7.3 nM | – | 2000 | 800 | C/C(=N\NS(=O)(=O)c1cc([N+](=O)[O-])ccc1N(C)Cc1ccccn1)c1cnn2ccc(Br)cc12 | – | 96 nM | 2800 nM
– | – | – | – | 5.7 µg/mL | – | – | CN(CCc1ccccn1)c1ccc([N+](=O)[O-])cc1S(=O)(=O)N(C)/N=C/c1cnn2ccc(C#N)cc12.Cl | – | – | –
575 nM | 9400 nM | – | 5.2 nM | – | 100 | 40 | C/C(=N\N(C)S(=O)(=O)c1cc([N+](=O)[O-])ccc1N(C)Cc1ccccn1)c1cnn2ccc(C#N)cc12 | – | 2200 nM | 2300 nM
– | – | – | – | 900 µg/mL | – | – | CN(CCc1c[nH]cn1)c1ccc([N+](=O)[O-])cc1S(=O)(=O)N(C)/N=C/c1cnn2ccc(C#N)cc12.Cl | – | – | –
– | – | – | – | 24 µg/mL | – | – | CN(CCc1cccnc1)c1ccc([N+](=O)[O-])cc1S(=O)(=O)N(C)/N=C/c1cnn2ccc(C#N)cc12.Cl | – | – | –
– | – | – | – | 45 µg/mL | – | – | CN(CCc1ccncc1)c1ccc([N+](=O)[O-])cc1S(=O)(=O)N(C)/N=C/c1cnn2ccc(C#N)cc12.Cl | – | – | –
100 nM | 76 nM | 72 nM | 16 nM | – | – | – | CN(C)CCCN(C)c1ccc([N+](=O)[O-])cc1S(=O)(=O)N(C)/N=C/c1cnn2ccc(C#N)cc12 | Toxic | 4 nM | 25 nM
– | – | – | – | 1200 µg/mL | – | – | CN(C)CCCN(C)c1ccc([N+](=O)[O-])cc1S(=O)(=O)N(C)/N=C/c1cnn2ccc(C#N)cc12.Cl | – | – | –
658 nM | > 1000 nM | – | 328 nM | – | – | – | C/C(=N\N(C)S(=O)(=O)c1cc([N+](=O)[O-])ccc1N(C)CCN(C)C)c1cnn2ccc(C#N)cc12 | – | 1800 nM | 860 nM
74 nM | 1000 nM | – | 19 nM | – | – | – | CN(CCN1CCOCC1)c1ccc([N+](=O)[O-])cc1S(=O)(=O)N(C)/N=C/c1cnn2ccc(C#N)cc12 | – | 260 nM | 210 nM
